# Test results: patent publication US12037344B2, “NLRP3 modulators” (INNATE TUMOR IMMUNITY, INC., priority 2018, dated 2024)
# Like-named read-outs stand apart in the source and are kept apart here.
# Experiments:
# TLR8 = target: T1, TLR8 (Homo sapiens, UniProt Q9NR97); test: In vitro human TLR8 binding reporter assay (HEK-Blue, NF-kB/AP1-inducible SEAP); assay type: cell-based; conditions: activity range class, read-out: TLR8 Agonist EC50
# T1 construct: human HEK-Blue cells co-expressing a TLR7 or TLR8 gene
# T1 sequence (Q9NR97 27-1041): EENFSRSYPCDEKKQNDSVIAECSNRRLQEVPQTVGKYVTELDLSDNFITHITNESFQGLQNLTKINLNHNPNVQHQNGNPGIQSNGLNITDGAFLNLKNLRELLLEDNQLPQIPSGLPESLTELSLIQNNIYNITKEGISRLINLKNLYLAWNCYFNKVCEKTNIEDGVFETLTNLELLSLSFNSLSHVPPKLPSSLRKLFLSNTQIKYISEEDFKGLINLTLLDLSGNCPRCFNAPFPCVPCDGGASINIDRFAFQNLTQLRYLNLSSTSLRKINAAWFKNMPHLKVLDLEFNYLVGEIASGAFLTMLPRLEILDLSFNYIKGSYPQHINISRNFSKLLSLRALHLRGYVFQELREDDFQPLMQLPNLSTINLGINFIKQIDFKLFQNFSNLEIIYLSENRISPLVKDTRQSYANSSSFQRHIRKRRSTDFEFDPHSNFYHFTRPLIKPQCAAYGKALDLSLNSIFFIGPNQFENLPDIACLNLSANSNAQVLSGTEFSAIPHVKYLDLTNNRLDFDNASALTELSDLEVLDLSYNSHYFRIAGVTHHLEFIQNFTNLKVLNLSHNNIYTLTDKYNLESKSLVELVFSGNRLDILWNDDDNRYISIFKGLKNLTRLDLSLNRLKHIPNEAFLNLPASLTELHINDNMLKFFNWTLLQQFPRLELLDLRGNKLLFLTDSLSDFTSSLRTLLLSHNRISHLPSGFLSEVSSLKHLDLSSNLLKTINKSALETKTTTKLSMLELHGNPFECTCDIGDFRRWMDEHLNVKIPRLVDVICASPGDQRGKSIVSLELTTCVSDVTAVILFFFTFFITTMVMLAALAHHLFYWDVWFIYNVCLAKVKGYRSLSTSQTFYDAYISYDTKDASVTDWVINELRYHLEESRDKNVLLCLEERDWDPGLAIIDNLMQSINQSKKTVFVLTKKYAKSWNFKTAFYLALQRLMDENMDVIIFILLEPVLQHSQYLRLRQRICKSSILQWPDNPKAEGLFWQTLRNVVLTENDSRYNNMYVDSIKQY
# Method: (§1) In Vitro Human TLR7 and TLR8 Binding Reporter Assays
# (§2) Logarithmically-growing human HEK-Blue cells co-expressing a TLR7 or TLR8 gene and a NF-kB/AP1-inducible SEAP (secreted embryonic alkaline phosphatase; Invivogen, San Diego, CA) reporter gene are added to individual wells of a 384-well plate (15,000 cells per 20 μL per well) and maintained for 24 h at 37° C., 5% CO2. Test compounds or DMSO are distributed to separate wells the next day using acoustic liquid handling technology (100 nL per well) and cells are subsequently incubated for 18 h at 37° C., 5% CO2. Cellular SEAP production is measured using an Envision plate reader instrument thirty minutes after adding freshly-made Quanti-Blue reagent (prepared by following manufacturer instructions; Invivogen, San Diego, CA) to the HEK-Blue TLR Nf-kB-SEAP cell reactions. All EC50 values (half-maximal effective concentration) are determined using proprietary data analysis software. Normalized EC50 value=absolute value determined by setting 100% Ymax using a reference standard RLU (relative light unit) values from cells treated with 50 μM of the reference standard.
# TLR7 = target: T2, TLR7 (Homo sapiens, UniProt Q9NYK1); test: In vitro human TLR7 binding reporter assay (HEK-Blue, NF-kB/AP1-inducible SEAP); assay type: cell-based; conditions: activity range class, read-out: TLR7 Agonist EC50
# T2 construct: human HEK-Blue cells co-expressing a TLR7 or TLR8 gene
# T2 sequence (Q9NYK1 27-1049): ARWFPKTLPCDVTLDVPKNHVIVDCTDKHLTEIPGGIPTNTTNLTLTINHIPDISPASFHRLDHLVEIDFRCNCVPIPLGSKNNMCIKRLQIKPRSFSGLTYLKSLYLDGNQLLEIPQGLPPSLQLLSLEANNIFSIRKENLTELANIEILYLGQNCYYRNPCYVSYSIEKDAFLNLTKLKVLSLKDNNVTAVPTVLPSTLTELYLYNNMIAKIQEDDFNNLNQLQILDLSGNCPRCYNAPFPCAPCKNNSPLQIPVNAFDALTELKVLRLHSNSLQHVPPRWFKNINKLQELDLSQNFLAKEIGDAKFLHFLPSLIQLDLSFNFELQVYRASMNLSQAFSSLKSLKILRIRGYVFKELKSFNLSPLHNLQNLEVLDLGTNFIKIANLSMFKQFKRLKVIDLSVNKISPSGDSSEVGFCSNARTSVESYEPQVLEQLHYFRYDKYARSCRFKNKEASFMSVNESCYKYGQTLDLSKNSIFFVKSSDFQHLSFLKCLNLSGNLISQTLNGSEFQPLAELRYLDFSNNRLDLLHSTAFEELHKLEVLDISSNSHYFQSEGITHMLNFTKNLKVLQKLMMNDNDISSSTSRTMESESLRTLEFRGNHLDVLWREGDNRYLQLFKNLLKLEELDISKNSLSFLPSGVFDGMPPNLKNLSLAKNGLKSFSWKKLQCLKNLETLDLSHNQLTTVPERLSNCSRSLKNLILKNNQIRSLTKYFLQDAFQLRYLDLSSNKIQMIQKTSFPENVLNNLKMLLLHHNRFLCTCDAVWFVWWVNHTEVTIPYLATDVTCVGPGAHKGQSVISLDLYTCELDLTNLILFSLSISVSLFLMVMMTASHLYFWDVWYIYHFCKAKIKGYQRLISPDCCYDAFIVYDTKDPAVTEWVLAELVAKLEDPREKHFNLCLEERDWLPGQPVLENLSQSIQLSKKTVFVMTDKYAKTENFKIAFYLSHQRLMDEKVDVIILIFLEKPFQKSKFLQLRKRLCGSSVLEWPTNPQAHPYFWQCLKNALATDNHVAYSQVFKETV
# Method: as §1, §2
# THP-1 cells = test: Measurement of IL-1β production, hTRF protocol (second alternative procedure), THP-1 cells; assay type: cell-based, human; conditions: human, read-out: NLRP3 hILIB EC50
# Method: Measurement of IL-1β Production—hTRF Protocol (Second Alternative Procedure)
# Serial dilutions of compounds in DMSO were added to low volume 384 well plates at 100 nl/well using an ECHO 550 acoustic dispenser (Labcyte) to achieve final starting concentration of 10 μM in assay.
# THP-1 cells in RPMI (Gibco, 11875) media with 10% FBS at a density of 1×10^6 cell/ml in a T175 flask were treated with a final concentration of phorbol 12-myristate 13-acetate (PMA) (Sigma, P1585) of 50 ng/ml overnight at 37° C. at 5% CO2 for differentiation. Cells were harvested the next day after rinsing well with dPBS using 0.5% trypsin. A cell solution was prepared of 1×10^6 cells/ml for 50,000 cells in 50 μl/well in RPMI media with 2% FBS. Cells were plated using a multichannel pipette onto the compound dilutions in Greiner, 384 well, black clear bottom tissue culture treated plates (781090). The plates were incubated in 37° C. incubator at 5% CO2 for 2 hours.
# After the 2 hour incubation, the cell plates were spun in the centrifuge for 5 minutes at 1200 rpm. Using the Felix (CyBio), 8 μl of the supernatant was transferred to 384 well, low volume, white proxy plates. (Perkin Elmer, 6008230). A human IL1beta hTRF kit was used to analyze the supernatant (CISBIO, 62HIL1BPEG). The kit instructions were followed for preparing the IL1Beta standard curve and then the antibodies from the kit were diluted 1:40 rather than 1:20 as kit instructed. Once combined, the antibodies were added across the plates, 5 μl/well. The plates were sealed and incubated at 4° C. overnight. The plates were then read on the Perkin Elmer EnVision at 665/615 nm using the hTRF laser.
# [1] = Homo sapiens, THP-1, IL-1β production
SMILES,EC50 (TLR8) [µM],EC50 (TLR7) [µM],EC50 (THP-1 cells; IL-1β production) [µM],EC50 (THP-1 cells; [1]) [µM]
"Nc1nc2cc(-c3cc[nH]n3)ccc2c2nn(C3CCCC3O)cc12 (single isomer, unassigned) [Example 340]",> 100,> 100,0.62,
"Nc1nc2cc(-c3cc[nH]n3)ccc2c2cn(CCCO)nc12 [Example 1, 3-[4-amino-7-(1H-pyrazol-3-yl)-2H-pyrazolo[3,4-c]quinolin-2-yl]propan-1-ol]",> 100,> 100,,0.45
"Nc1nc2cc(-c3cc[nH]n3)ccc2c2cn(CCCOc3ccccc3)nc12 [Example 2, 2-(3-phenoxypropyl)-7-(1H-pyrazol-3-yl)-2H-pyrazolo[3,4-c]quinolin-4-amine]",20 to 100,20 to 100,,0.43
"Nc1nc2cc(-c3cc[nH]n3)ccc2c2cn(CCCOc3ccccn3)nc12 [Example 3, 7-(1H-pyrazol-3-yl)-2-[3-(pyridin-2-yloxy)propyl]-2H-pyrazolo[3,4-c]quinolin-4-amine]",> 100,> 100,,0.56
"Nc1nc2cc(-c3cc[nH]n3)ccc2c2cn(CCCn3ccccc3=O)nc12 [Example 4, 1-{3-[4-amino-7-(1H-pyrazol-3-yl)-2H-pyrazolo[3,4-c]quinolin-2-yl]propyl}-1,2-dihydropyridin-2-one]",> 100,> 100,,16.8
Nc1nc2cc(-c3cc[nH]n3)ccc2c2cn(CCCOc3cccc(F)c3)nc12 [Example 5],> 100,> 100,,0.35
Nc1nc2cc(-c3cc[nH]n3)ccc2c2cn(CCCOc3ccc(F)cc3)nc12 [Example 6],> 100,> 100,,0.56
Nc1nc2cc(-c3cc[nH]n3)ccc2c2cn(CCCOc3ccccc3F)nc12 [Example 7],> 100,> 100,,0.42
Cc1cccc(OCCCn2cc3c(n2)c(N)nc2cc(-c4cc[nH]n4)ccc23)c1 [Example 8],> 100,> 100,,0.89
Nc1nc2cc(-c3cc[nH]n3)ccc2c2cn(CCCOc3cccnc3)nc12 [Example 9],> 100,> 100,,0.57

# Results, then the compound that gave them:
EC50 (TLR8) [µM],EC50 (TLR7) [µM],EC50 (THP-1 cells; IL-1β production) [µM],EC50 (THP-1 cells; [1]) [µM],SMILES
> 100,> 100,1.35,,"Nc1nc2cc(-c3cc[nH]n3)ccc2c2nn(CC3CCOC3)cc12 (single isomer, unassigned) [Example 328]"
> 100,> 100,,0.22,"COCC(C)n1cc2c(N)nc3cc(-c4cc[nH]n4)ccc3c2n1 (single isomer, unassigned) [Example 337]"
> 100,> 100,0.39,,"COCC(C)n1cc2c(N)nc3cc(-c4cc[nH]n4)ccc3c2n1 (single isomer, unassigned) [Example 338]"
> 100,> 100,,0.43,"Nc1nc2cc(-c3cc[nH]n3)ccc2c2nn(C3CCC(O)C3)cc12 (single isomer, unassigned) [Example 341]"
> 100,> 100,0.34,,"Nc1nc2cc(-c3cc[nH]n3)ccc2c2nn(C3CCC(O)C3)cc12 (single isomer, unassigned) [Example 342]"
> 100,> 100,,1.02,"CC1(O)CCCC1n1cc2c(N)nc3cc(-c4cc[nH]n4)ccc3c2n1 (single isomer, unassigned) [Example 344]"
> 100,> 100,2.03,,"CC1(O)CCCC1n1cc2c(N)nc3cc(-c4cc[nH]n4)ccc3c2n1 (single isomer, unassigned) [Example 345]"
> 100,> 100,0.65,,"COC(C)Cn1cc2c(N)nc3cc(-c4cc[nH]n4)ccc3c2n1 (single isomer, unassigned) [Example 346]"
> 100,> 100,0.3,,"COC(C)Cn1cc2c(N)nc3cc(-c4cc[nH]n4)ccc3c2n1 (single isomer, unassigned) [Example 347]"
> 100,> 100,,0.4,"Nc1nc2cc(-c3cc[nH]n3)ccc2c2nn(CC(O)CF)cc12 (single isomer, unassigned) [Example 376]"
> 100,> 100,0.45,,"Nc1nc2cc(-c3cc[nH]n3)ccc2c2nn(CC(O)CF)cc12 (single isomer, unassigned) [Example 377]"
> 100,> 100,,0.64,"Nc1nc2cc(-c3cc[nH]n3)ccc2c2nn(CC(O)CC(F)(F)F)cc12 (single isomer, unassigned) [Example 378]"
> 100,> 100,0.32,,"Nc1nc2cc(-c3cc[nH]n3)ccc2c2nn(CC(O)CC(F)(F)F)cc12 (single isomer, unassigned) [Example 379]"
